Target: Thromboxane A2 receptor (Cavia porcellus)
Assay: Compound was evaluated for its ability to inhibit specific binding of [3H]U-46619 to Thromboxane A2/ Prostaglandin H2 receptor in guinea pig platelet membrane

Row | Compound | IC50 [nM]
1 | Cc1c(C)c(C(CCCCCC(=O)O)c2ccc(F)cc2)c(O)c(C)c1C=O (configuration not stated) | 30
2 | Cc1c(C)c(O)c(C(=CCCCCC(=O)O)c2ccc(F)cc2)c(C)c1O | 1400

Reference: BindingDB's records for doi:10.1021/jm00090a009 (Takeda Chemical Industries, 1992)
